Some test systems named below: MDA-MB-231; SN12C; T47D; COLO 205; KM12; RPMI-8226; A549; OVCAR-8; MDA-MB-435; UO-31; EKVX; SF-539; SF-268; HT-29; 786-0; HL-60.
What all share (assay): growth of human tumour cells (NCI), 48 h

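The compound was tested at five concentrations on cells cultured in 96-well plates, with a 48-hour exposure period. Here, GI50 denotes the concentration required for 50% inhibition of growth.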 The source made the active and inactive calls. Cut-off read from the data, not from the text of the source: active = GI50 up to about 1.1 µM and inactive = higher. A value given as a limit tells only on which side of the number the result lay.

This note sets out measurements from ChEMBL document CHEMBL1201862, “PubChem BioAssay data set” (2004).

`COc1ccc(/C=C2\N=C(SC)NC2=O)cc1`: the GI50 in the assay on MDA-MB-231 was 59.6 µM (inactive); with SN12C, > 100 µM (inactive); in the assay with T47D, 27.8 µM (inactive); with COLO 205, 98.6 µM (inactive); in the assay on KM12, 54.6 µM (inactive); in the assay on RPMI-8226, 61.8 µM (inactive). Moreover, the GI50 in the assay with A549 is > 100 µM (inactive); in the assay on OVCAR-8 it was > 100 µM (inactive); in the assay on MDA-MB-435 it was 91.8 µM (inactive); in the assay with UO-31 it was 21.2 µM (inactive); with EKVX it was 30.4 µM (inactive); in the assay with SF-539, 80.7 µM (inactive). Besides, the GI50 with SF-268 is 58.6 µM (inactive); in the assay on HT-29, > 100 µM (inactive); in the assay with 786-0, > 100 µM (inactive).

For the molecule `O=C1c2cc([N+](=O)[O-])ccc2-c2ccc3c4ccc5c6c(ccc(c7ccc1c2c73)c64)C(=O)c1cc([N+](=O)[O-])ccc1-5`, the GI50 in the assay with MDA-MB-231, with SN12C, in the assay with T47D, in the assay with COLO 205, in the assay on HL-60 and in the assay with KM12 was > 100 µM (inactive) in each case. The GI50 in the assay with RPMI-8226, with A549, in the assay on OVCAR-8, with MDA-MB-435, in the assay with UO-31 and in the assay on EKVX was > 100 µM (inactive) each time. The GI50 with SF-268, with HT-29 and in the assay on 786-0 was > 100 µM (inactive) each time.

With `Cc1cc([N+](=O)[O-])c(C)c(Br)c1C`, the GI50 with MDA-MB-231 is > 100 µM (inactive); in the assay on SN12C, > 100 µM (inactive); in the assay with T47D it was 71 µM (inactive); in the assay with COLO 205, > 100 µM (inactive); with KM12, > 100 µM (inactive); in the assay with RPMI-8226 it was > 100 µM (inactive). For the same molecule, the GI50 with A549 is > 100 µM (inactive); in the assay on OVCAR-8, > 100 µM (inactive); in the assay with MDA-MB-435, > 100 µM (inactive); in the assay on UO-31, > 100 µM (inactive); in the assay with EKVX it was 70.8 µM (inactive); in the assay on SF-539 it was > 100 µM (inactive). Further, the GI50 in the assay on SF-268, in the assay with HT-29 and in the assay on 786-0 was > 100 µM (inactive) in each case.

For the molecule `COc1cc(C2SCC(=O)N2c2ccc(Oc3ccc(Cl)cc3)c(Cl)c2)cc(OC)c1OC` (centres undefined), the GI50 in the assay on MDA-MB-231 is 18.7 µM (inactive); in the assay with SN12C, 27.3 µM (inactive); in the assay with T47D, 10.3 µM (inactive); in the assay with COLO 205 it was 19.7 µM (inactive); in the assay on KM12, 19.8 µM (inactive); with RPMI-8226, 29.4 µM (inactive). Further, the GI50 is 21.9 µM (inactive) in the assay with A549; 17 µM (inactive) with OVCAR-8; 16 µM (inactive) in the assay on MDA-MB-435; 17.6 µM (inactive) in the assay with UO-31; 23.6 µM (inactive) with EKVX; 22.8 µM (inactive) in the assay on SF-539. For the same molecule, the GI50 was 17.2 µM (inactive) with SF-268, 16.3 µM (inactive) with HT-29 and 18.3 µM (inactive) in the assay with 786-0.

For `O=C1c2cccc3cc([N+](=O)[O-])cc(c23)C(=O)N1c1ccc(OCCN2CCCC2)cc1`, the GI50 in the assay with MDA-MB-231 is 43.2 µM (inactive); in the assay on SN12C, > 100 µM (inactive); in the assay with T47D it was > 100 µM (inactive); with COLO 205 it was 9.46 µM (inactive); with HL-60 it was 10.8 µM (inactive); with KM12 it was 22.2 µM (inactive). The GI50 in the assay with A549 was 3.3 µM (inactive); in the assay on OVCAR-8, 19.8 µM (inactive); in the assay on MDA-MB-435, 19.4 µM (inactive); in the assay with UO-31, 13.6 µM (inactive); in the assay on EKVX it was 21.6 µM (inactive); in the assay on SF-539, 13.3 µM (inactive). The GI50 with SF-268 was 22 µM (inactive); in the assay with HT-29 it was 11.7 µM (inactive); in the assay on 786-0, 10.6 µM (inactive).

Consider `CC(=O)c1c2c(cc3c1CC1(C3)Cc3cc4c(c(C(=O)O)c3C1)CCCC4)CCCC2.CC(N)c1ccccc1` (centres undefined), for which the GI50 in the assay with MDA-MB-231 was 10 µM (inactive); in the assay with SN12C, 30.7 µM (inactive); in the assay with T47D it was 36.6 µM (inactive); in the assay on COLO 205, 27.9 µM (inactive); with HL-60, 25.5 µM (inactive); with KM12 it was 27 µM (inactive). Besides, the GI50 in the assay on RPMI-8226 was 31.6 µM (inactive); in the assay with A549, 30.2 µM (inactive); with OVCAR-8 it was 28.2 µM (inactive); in the assay on MDA-MB-435, 54.8 µM (inactive); with UO-31, 18.6 µM (inactive); in the assay with EKVX, 26.4 µM (inactive). For the same molecule, the results for the GI50 in the assay on SF-268, with HT-29 and with 786-0 were 38.7 µM (inactive), 34.1 µM (inactive) and 34.4 µM (inactive), respectively.

Turning to `Cn1c2ccccc2c2c(=S)c3ccccc3ccc21`, the GI50 was > 100 µM (inactive) in the assay on MDA-MB-231; > 100 µM (inactive) with SN12C; 20.7 µM (inactive) in the assay with T47D; 67.3 µM (inactive) in the assay on COLO 205; > 100 µM (inactive) with HL-60; 55.7 µM (inactive) with KM12. Besides, the GI50 in the assay on A549 was 71.4 µM (inactive); in the assay on OVCAR-8, 56.5 µM (inactive); with MDA-MB-435, > 100 µM (inactive); in the assay with UO-31, > 100 µM (inactive); in the assay with EKVX it was 85.9 µM (inactive); with SF-268, > 100 µM (inactive). Further, the figures for the GI50 with HT-29 and in the assay on 786-0 were 63.4 µM (inactive) and > 100 µM (inactive), respectively.

Consider `CC(/C=N\NC(=S)N(C)C)=N/NC(=S)N(C)C`, for which the GI50 was 29 µM (inactive) with MDA-MB-231; 0.951 µM (active) in the assay on SN12C; 0.0935 µM (active) in the assay with T47D; 0.497 µM (active) in the assay with COLO 205; 1.78 µM (inactive) with KM12; 0.791 µM (active) in the assay on RPMI-8226. The GI50 is 0.142 µM (active) in the assay on A549; 0.308 µM (active) in the assay on OVCAR-8; 0.881 µM (active) in the assay with MDA-MB-435; 0.158 µM (active) with UO-31; 0.832 µM (active) in the assay on EKVX; 0.74 µM (active) in the assay with SF-539. Further, the values for the GI50 in the assay with SF-268, with HT-29 and in the assay on 786-0 were 0.251 µM (active), 0.0995 µM (active) and 0.509 µM (active), respectively.

As for `O=c1c(-c2ccccc2Cl)coc2cc(F)ccc12`, the GI50 in the assay on MDA-MB-231 was 19.4 µM (inactive); in the assay with SN12C, 53.2 µM (inactive); in the assay on T47D, 45.1 µM (inactive); in the assay with COLO 205, 44.7 µM (inactive); in the assay with HL-60 it was 4.3 µM (inactive); with KM12 it was 21.5 µM (inactive). Also, the GI50 was 23.7 µM (inactive) with A549; 33.7 µM (inactive) in the assay with OVCAR-8; 2.1 µM (inactive) with MDA-MB-435; 20.4 µM (inactive) in the assay on UO-31; 52.6 µM (inactive) in the assay on EKVX; 11.9 µM (inactive) in the assay with SF-539. Further, the GI50 is 40.7 µM (inactive) in the assay on SF-268, 22.5 µM (inactive) in the assay on HT-29 and 30.4 µM (inactive) in the assay on 786-0.

Regarding `COc1cc2cc(C(=O)N3CC(CCl)c4c3cc([N+](=O)[O-])c3ccccc43)[nH]c2c(OC)c1OC` (centres undefined), the GI50 was > 100 µM (inactive) in the assay on MDA-MB-231; 79.6 µM (inactive) with SN12C; > 66.8 µM (inactive) in the assay with T47D; > 76 µM (inactive) with COLO 205; > 62.8 µM (inactive) in the assay with KM12; > 100 µM (inactive) in the assay with RPMI-8226. Also, the GI50 in the assay with A549 was 1.8 µM (inactive); in the assay with OVCAR-8, 12.8 µM (inactive); in the assay with MDA-MB-435 it was > 100 µM (inactive); in the assay with UO-31, > 100 µM (inactive); with EKVX, 16.7 µM (inactive); in the assay on SF-539, 25.8 µM (inactive). For the same molecule, the GI50 was 26.8 µM (inactive) in the assay with SF-268, 40.6 µM (inactive) in the assay with HT-29 and 29.3 µM (inactive) in the assay on 786-0.
